Patent US9085576B2 (AMGEN INC., priority 2013, dated 2015)
Structures can show the parent of a compound that is named as a salt.

Assays:
[1] = target: Beta Secretase enzyme (BACE) (Homo sapiens (Human), UniProt P56817); experiment: In vitro enzymatic BACE FRET assay; type: biochemical; settings: read-out: BACE1 Enzyme assay IC50
[2] = target: Cathepsin D (Cat D) (Homo sapiens (Human), UniProt P07339); experiment: In vitro enzymatic Cathepsin D (Cat D) FRET assay; type: biochemical; settings: read-out: CatD IC50
[3] = target: BACE (Homo sapiens (Human), UniProt P56817); experiment: In vitro BACE cell-based assay (Aβ40 in conditioned medium, sandwich ELISA)
Chain of BACE (P56817 46-501, species assumed): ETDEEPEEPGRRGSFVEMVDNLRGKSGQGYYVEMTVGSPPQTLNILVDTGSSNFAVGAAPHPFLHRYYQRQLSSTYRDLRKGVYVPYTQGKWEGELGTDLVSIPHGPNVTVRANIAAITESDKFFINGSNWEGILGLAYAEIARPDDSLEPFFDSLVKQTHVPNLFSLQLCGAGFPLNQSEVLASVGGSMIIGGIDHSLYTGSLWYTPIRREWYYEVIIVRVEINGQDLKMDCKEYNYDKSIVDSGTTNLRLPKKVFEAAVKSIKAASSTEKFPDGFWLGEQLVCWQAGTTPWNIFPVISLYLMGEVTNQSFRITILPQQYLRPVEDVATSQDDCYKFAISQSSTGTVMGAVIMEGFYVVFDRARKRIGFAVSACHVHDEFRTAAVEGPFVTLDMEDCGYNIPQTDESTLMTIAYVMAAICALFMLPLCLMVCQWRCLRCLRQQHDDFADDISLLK

Chain of Beta Secretase enzyme (BACE) (P56817 46-501): as the sequence (P56817 46-501, species assumed) above
Chain of Cathepsin D (Cat D) (P07339 65-412, species assumed): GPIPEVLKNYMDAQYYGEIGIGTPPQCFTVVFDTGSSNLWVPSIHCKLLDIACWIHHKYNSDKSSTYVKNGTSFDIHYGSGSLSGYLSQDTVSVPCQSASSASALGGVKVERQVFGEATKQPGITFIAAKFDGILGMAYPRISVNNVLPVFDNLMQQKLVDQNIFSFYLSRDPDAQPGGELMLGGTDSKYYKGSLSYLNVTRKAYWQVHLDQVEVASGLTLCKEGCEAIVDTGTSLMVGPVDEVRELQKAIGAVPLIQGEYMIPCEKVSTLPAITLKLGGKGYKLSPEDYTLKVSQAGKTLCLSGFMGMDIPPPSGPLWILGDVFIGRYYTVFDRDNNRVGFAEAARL

IC50 [1] [µM] | IC50 [2] [µM] | IC50 [3] [µM] | Compound
0.158 | 822 | 0.179 | COc1cnc(C(=O)Nc2ccc(F)c([C@]3(C(F)F)N=C(N)O[C@H]4C[C@H]43)c2)c(C)n1 (racemic) [Example 58, N-(3-([1(R,S),5(S,R),6(R,S)]-3-amino-5-(difluoromethyl)-2-oxa-4-azabicyclo[4.1.0]hept-3-en-5-yl)-4-fluorophenyl)-5-methoxy-3-methylpyrazine-2-carboxamide]
0.167 | 1780 | 0.0701 | Cc1c(C(=O)Nc2ccc(F)c([C@]3(C(F)F)N=C(N)O[C@H]4C[C@H]43)c2)nc2ccc(Cl)cn12 (racemic) [Example 61, N-(3-([1(R,S),5(S,R),6(R,S)]-3-amino-5-(difluoromethyl)-2-oxa-4-azabicyclo[4.1.0]hept-3-en-5-yl)-4-fluorophenyl)-6-chloro-3-methylimidazo[1,2-a]pyridine-2-carboxamide]
0.115 | 274 | 0.331 | NC1=N[C@](c2cc(NC(=O)c3ccc(Cl)cn3)cnc2F)(C(F)F)[C@@H]2C[C@@H]2O1 (racemic) [Example 73, N-(5-([1(R,S),5(S,R),6(R,S)]-3-amino-5-(difluoromethyl)-2-oxa-4-azabicyclo[4.1.0]hept-3-en-5-yl)-6-fluoropyridin-3-yl)-5-chloropicolinamide]
0.0371 | 1280 | 0.0505 | NC1=N[C@@](c2cc(NC(=O)c3ccc(Cl)cn3)ccc2Cl)(C(F)F)[C@H]2C[C@H]2O1 (racemic) [Example 97, N-(3-(((1R,S), (5S,R), (6R,S))-3-amino-5-(difluoromethyl)-2-oxa-4-azabicyclo[4.1.0]hept-3-en-5-yl)-4-chlorophenyl)-5-chloropicolinamide trifluoroacetate]
0.12 | 491 | 0.0214 | N#Cc1ccc(C(=O)Nc2cc(F)c(Cl)c([C@]3(CF)N=C(N)O[C@H]4C[C@H]43)c2)nc1 (racemic) [Example 136, N-(3-((1R/S,5S/R,6R/S)-3-amino-5-(fluoromethyl)-2-oxa-4-4-azabicyclo[4.1.0]hept-3-en-5-yl)-4-chloro-5-fluorophenyl)-5-cyanopicolinamide]
> 40 | 655 | > 15.6 | CSc1c(F)cc(NC(=O)c2ccc(Cl)cn2)cc1[C@@]1(CF)N=C(N)O[C@@H]2C[C@@H]21 (racemic) [Example 141, N-(3-(((1S,R),(5S,R),(6R,S))-3-amino-5-(fluoromethyl)-2-oxa-4-azabicyclo[4.1.0]hept-3-en-5-yl)-5-fluoro-4-(methylthio)phenyl)-5-chloropicolinamide]
0.128 | 404 | 0.0476 | COc1cnc(C(=O)Nc2cc(F)c(Cl)c([C@]3(CF)N=C(N)O[C@H]4C[C@H]43)c2)cn1 (racemic) [Example 152, N-(3-([1(S,R),5(R,S),6(S,R)]-3-amino-5-(fluoromethyl)-2-oxa-4-azabicyclo[4.1.0]hept-3-en-5-yl)-4-chloro-5-fluorophenyl)-5-methoxypyrazine-2-carboxamide compound with N-(3-((1S,5R,6S)-3-amino-5-(fluoromethyl)-2-oxa-4-azabicyclo[4.1.0]hept-3-en-5-yl)-4-chloro-5-fluorophenyl)-5-methoxypyrazine-2-carboxamide (1:1)]
0.143 | 555 | 0.0762 | Cc1cc(OC(F)F)cnc1C(=O)Nc1cc(F)c(Cl)c([C@]2(CF)N=C(N)O[C@H]3C[C@H]32)c1 (racemic) [Example 153, N-(3-([1(S,R),5(R,S),6(S, R)]-3-amino-5-(fluoromethyl)-2-oxa-4-azabicyclo[4.1.0]hept-3-en-5-yl)-4-chloro-5-fluorophenyl)-5-(difluoromethoxy)-3-methylpicolinamide compound with N-(3-((1S,5R,6S)-3-amino-5-(fluoromethyl)-2-oxa-4-azabicyclo[4.1.0]hept-3-en-5-yl)-4-chloro-5-fluorophenyl)-5-(difluoromethoxy)-3-methylpicolinamide (1:1)]
0.226 | 1050 | 0.466 | Cc1nc(OCC(F)(F)F)cnc1C(=O)Nc1cc(F)c(Cl)c([C@]2(CF)N=C(N)O[C@H]3C[C@H]32)c1 (racemic) [Example 159, N-(3-([1(S,R),5(R,S),6(S,R)]-3-amino-5-(fluoromethyl)-2-oxa-4-azabicyclo[4.1.0]hept-3-en-5-yl)-4-chloro-5-fluorophenyl)-3-methyl-5-(2,2,2-trifluoroethoxy)pyrazine-2-carboxamide]
0.15 | 489 | 3.64 | NC1=N[C@](c2cccc(NC(=O)c3ccc(Cl)cn3)c2)(C(F)(F)F)[C@@H]2C[C@@H]2O1 (racemic) [Example 208, N-(3-([1(R,S),5(S,R),6(R,S)]-3-amino-5-(trifluoromethyl)-2-oxa-4-azabicyclo[4.1.0]hept-3-en-5-yl)phenyl)-5-chloropicolinamide]
0.861 | > 400 | > 15.6 | NC1=N[C@](c2cc(NC(=O)c3ccc(Cl)cn3)ccc2F)(C(F)(F)F)[C@@H]2C[C@@H]2O1 (racemic) [Example 218, N-(3-((1(R,S),5(S,R),6(R,S))-3-amino-5-(trifluoromethyl)-2-oxa-4-azabicyclo[4.1.0]hept-3-en-5-yl)-4-fluorophenyl)-5-chloropicolinamide compound]
0.0469 | 2260 | 0.0105 | N#Cc1cnc(C(=O)Nc2ccc(F)c([C@]3(CF)N=C(N)O[C@H]4C[C@H]43)c2)c(Cl)c1 (racemic) [Example 227, N-(3-((1(R,S),5(S,R),6(R,S))-3-amino-5-(fluoromethyl)-2-oxa-4-azabicyclo[4.1.0]hept-3-en-5-yl)-4-fluorophenyl)-3-chloro-5-cyanopicolinamide]
0.0743 | 421 | 0.0387 | Cc1cc(C#N)cnc1C(=O)Nc1cc(F)c(C)c([C@@]2(C(F)F)N=C(N)O[C@@H]3C[C@@H]32)c1 (racemic) [Example 309, N-(3-(((1R,S),(5S,R),(6R.S))-3-amino-5-(difluoromethyl)-2-oxa-4-azabicyclo[4.1.0]hept-3-en-5-yl)-5-fluoro-4-methylphenyl)-5-cyano-3-methylpicolinamide]
0.101 | 139 | 0.0326 | N#Cc1ccc(C(=O)Nc2ccc(F)c([C@@]3(C(F)F)N=C(N)O[C@@H]4C[C@@H]43)n2)nc1 (racemic) [Example 330]
1.03 | 832 | 0.254 | CS(=O)(=O)c1c(F)cc(NC(=O)c2ccc(Cl)cn2)cc1[C@@]1(CF)N=C(N)O[C@@H]2C[C@@H]21 (racemic) [Example 424, N-(3-(((1RS),(5S,R),(6R,S))-3-amino-5-(fluoromethyl)-2-oxa-4-azabicyclo[4.1.0]hept-3-en-5-yl)-5-fluoro-4-(methylsulfonyl)phenyl)-5-chloropicolinamide]
6.21 | 623 | 1.75 | C#CCOc1cnc(C(=O)Nc2cc(F)c(F)c(C3(CF)N=C(N)O[C@H]4C[C@H]43)c2)cn1 (stereo in doubt) [Example 34, N-(3-((1S,5S,6S)-3-amino-5-(fluoromethyl)-2-oxa-4-azabicyclo[4.1.0]hept-3-en-5-yl)-4,5-difluorophenyl)-5-(prop-2-yn-1-yloxy)pyrazine-2-carboxamide]
0.295 | 526 | 0.176 | CC#CCOc1cnc(C(=O)Nc2cc(F)c(F)c(C3(CF)N=C(N)O[C@H]4C[C@H]43)c2)cn1 (stereo in doubt) [Example 36, N-(3-((1S,5S,6S)-3-amino-5-(fluoromethyl)-2-oxa-4-azabicyclo[4.1.0]hept-3-en-5-yl)-4,5-difluorophenyl)-5-(but-2-yn-1-yloxy)pyrazine-2-carboxamide]
6.5 | 516 | 1.91 | NC1=NC(CF)(c2cc(NC(=O)c3ccc(Br)cn3)cc(F)c2F)[C@@H]2C[C@@H]2O1 (stereo in doubt) [Example 40, N-(3-((1S,5S,6S)-3-amino-5-(fluoromethyl)-2-oxa-4-azabicyclo[4.1.0]hept-3-en-5-yl)-4,5-difluorophenyl)-5-bromopicolinamide]
21.2 | 968 | 1.76 | NC1=NC(CF)(c2cc(NC(=O)c3nn(C(F)F)cc3Cl)cc(F)c2F)[C@@H]2C[C@@H]2O1 (stereo in doubt) [Example 47, N-(3-((1S,5S,6S)-3-amino-5-(fluoromethyl)-2-oxa-4-azabicyclo[4.1.0]hept-3-en-5-yl)-4,5-difluorophenyl)-4-chloro-1-(difluoromethyl)-1H-pyrazole-3-carboxamide]
26.6 | 1750 | > 15.6 | Cc1cc(C#N)cnc1C(=O)Nc1cc(F)c(F)c([C@@]2(CF)N=C(N)O[C@@H]3C[C@@H]32)c1 (stereo in doubt) [Example 50]
> 40 | 1630 | > 15.6 | Cc1cc(C(F)(F)F)cnc1C(=O)Nc1cc(F)c(F)c([C@@]2(CF)N=C(N)O[C@@H]3C[C@@H]32)c1 (stereo in doubt) [Example 52]
0.0616 | 577 | 2.38 | Cc1nc(Cl)cnc1C(=O)Nc1ccc(F)c([C@@]2(C(F)F)N=C(N)O[C@@H]3C[C@@H]32)c1 (stereo in doubt) [Example 53, N-(3-((1R,5S,6R)-3-amino-5-(difluoromethyl)-2-oxa-4-azabicyclo[4.1.0]hept-3-en-5-yl)-4-fluorophenyl)-5-chloro-3-methylpyrazine-2-carboxamide]
2.51 | 460 | 2.24 | Cc1ncc(Cl)nc1C(=O)Nc1ccc(F)c([C@@]2(C(F)F)N=C(N)O[C@@H]3C[C@@H]32)c1 (stereo in doubt) [Example 54, N-(3-((1R,5S,6R)-3-amino-5-(difluoromethyl)-2-oxa-4-azabicyclo[4.1.0]hept-3-en-5-yl)-4-fluorophenyl)-6-chloro-3-methylpyrazine-2-carboxamide]
